# Data as given in ChEMBL document CHEMBL2331202, “Synthesis, Optimization, and Evaluation of Novel Small Molecules as Antagonists of WDR5-MLL Interaction” (ACS Med Chem Lett, 2013).
# Target: T1, WD repeat-containing protein 5 (Homo sapiens, UniProt P61964)
row,Compound,Kd [µM]
1,Cc1cccc(C(=O)Nc2cc([N+](=O)[O-])ccc2N2CCN(C)CC2)c1,1.1
2,Cc1cc(C(=O)Nc2cc([N+](=O)[O-])ccc2N2CCN(C)CC2)ccc1F,0.59
3,CN1CCN(c2ccc([N+](=O)[O-])cc2NC(=O)c2cccc(O)c2)CC1,> 10
4,O=C(Nc1cc([N+](=O)[O-])ccc1N1CCOCC1)c1ccccc1Cl,> 20
5,O=C(Nc1cc([N+](=O)[O-])ccc1F)c1ccccc1Cl,> 20
6,CN(C)C1CCN(c2ccc([N+](=O)[O-])cc2NC(=O)c2ccccc2Cl)C1 (stereo not drawn),15.8
7,CN1CCN(c2ccc([N+](=O)[O-])cc2NC(=O)c2ccco2)CC1,> 10
8,CN1CCN(c2ccc([N+](=O)[O-])cc2NC(=O)c2ccc(F)cc2)CC1,3.1
9,NC1CCN(c2ccc([N+](=O)[O-])cc2NC(=O)c2ccccc2Cl)CC1,> 20
10,CN(C)C1CCN(c2ccc([N+](=O)[O-])cc2NC(=O)c2ccccc2Cl)CC1,> 20
11,NC1CCN(c2ccc([N+](=O)[O-])cc2NC(=O)c2ccccc2Cl)C1 (stereo not drawn),> 20
12,CN1CCN(c2ccc([N+](=O)[O-])cc2NC(=O)Cc2ccccc2)CC1,> 10
13,CN(C)CCN(C)c1ccc([N+](=O)[O-])cc1NC(=O)c1ccccc1Cl,> 20
14,COc1cccc(C(=O)Nc2cc([N+](=O)[O-])ccc2N2CCN(C)CC2)c1,1.4
15,CC(=O)Nc1cc([N+](=O)[O-])ccc1N1CCN(C)CC1,> 10
16,CN1CCN(c2ccc([N+](=O)[O-])cc2NC(=O)c2cccnc2)CC1,> 10
17,CN1CCN(c2ccc([N+](=O)[O-])cc2NC(=O)C2CCCCC2)CC1,> 10
18,O=C(Nc1cc([N+](=O)[O-])ccc1N1CCCCC1)c1ccccc1Cl,> 20
19,O=C(Nc1cc([N+](=O)[O-])ccc1N1CCNCC1)c1ccccc1Cl,> 20
20,COc1cc(C(=O)Nc2cc([N+](=O)[O-])ccc2N2CCN(C)CC2)ccc1F,0.68

# Other lines, results leading:
row,Kd [µM],Compound
1,4.7,CC1CN(c2ccc([N+](=O)[O-])cc2NC(=O)c2ccccc2Cl)CCN1C (stereo not drawn)
2,> 20,CCN1CCN(c2ccc([N+](=O)[O-])cc2NC(=O)c2ccccc2Cl)CC1
3,1.1,Cc1cccc(C(=O)Nc2cc([N+](=O)[O-])ccc2N2CCN(C)CC2)c1Cl
4,3.5,CN1CCN(c2ccc(-c3ccco3)cc2NC(=O)c2ccccc2Cl)CC1
5,0.63,CN1CCN(c2ccc([N+](=O)[O-])cc2NC(=O)c2ccc(F)cc2Cl)CC1
6,> 10,CN1CCN(c2ccc(Br)cc2NC(=O)c2ccccc2Cl)CC1
7,0.71,CN1CCN(c2ccc([N+](=O)[O-])cc2NC(=O)c2cccc3ccccc23)CC1
8,1.5,CN1CCN(c2ccc([N+](=O)[O-])cc2NC(=O)c2cccc3ncccc23)CC1
9,6.6,COC(=O)c1ccc(N2CCN(C)CC2)c(NC(=O)c2ccccc2Cl)c1
10,> 10,CN1CCN(c2ccc(C(F)(F)F)cc2NC(=O)c2ccccc2Cl)CC1
11,> 10,CN1CCN(c2ccc(N)cc2NC(=O)c2ccccc2Cl)CC1
12,7,CN1CCCN(c2ccc([N+](=O)[O-])cc2NC(=O)c2ccccc2Cl)CC1
13,> 10,CN1CCN(c2ccc(C3CC3)cc2NC(=O)c2ccccc2Cl)CC1
14,> 10,CN1CCN(c2ccc(C(=O)O)cc2NC(=O)c2ccccc2Cl)CC1
15,1.8,CN1CCN(c2ccc([N+](=O)[O-])cc2NC(=O)c2cccc(Cl)c2)CC1
16,5.8,CN1CCN(c2ccc([N+](=O)[O-])cc2NC(=O)c2ccccc2)CC1
17,2.2,CN1CCN(c2ccc(-c3ccncc3)cc2NC(=O)c2ccccc2Cl)CC1

# Target: T1, WD repeat-containing protein 5
# Test: Antagonist activity at WDR5 (unknown origin)
row,IC50 [µM],Compound
1,6,O=C(O)c1ccc2ccccc2c1-c1c(C(=O)O)ccc2ccccc12
